These results are taken from ChEMBL document CHEMBL2040848, “Synthesis and bioactivity evaluation of rhodanine derivatives as potential anti-bacterial agents” (2012).

SMILES strings stand for the structures. In brackets after ≈: the same amount, converted by molar mass. Where only a bound is given, the exact number is not on record here.

Type in all cases: functional
The test system of assay [1] is Staphylococcus aureus. Nature of the assay: Ratio of MIC for oxacillin to compound for methicillin-resistant Staphylococcus aureus CCARM 3167 after 24 hrs by two-fold serial dilution method.
Assay [2] relates to Staphylococcus aureus. Nature of the assay: Ratio of MIC for norfloxacin to compound for quinolone-resistant Staphylococcus aureus CCARM 3505 after 24 hrs by two-fold serial dilution method.
For assay [3], the system named is Staphylococcus aureus. Nature of the assay: Antibacterial activity against quinolone-resistant Staphylococcus aureus CCARM 3505 after 24 hrs by two-fold serial dilution method. The following applies: CCARM 3505, 24 h.
For assay [4], the system named is Staphylococcus aureus. Put plainly: Antibacterial activity against Staphylococcus aureus KCTC 209 after 24 hrs by two-fold serial dilution method. The following applies: KCTC 209, 24 h.
Assay [5] relates to Staphylococcus aureus. Nature of the assay: Antibacterial activity against quinolone-resistant Staphylococcus aureus CCARM 3519 after 24 hrs by two-fold serial dilution method. The following applies: CCARM 3519, 24 h.
The test system of assay [6] is Staphylococcus aureus. Nature of the assay: Antibacterial activity against methicillin-resistant Staphylococcus aureus CCARM 3506 after 24 hrs by two-fold serial dilution method. The following applies: CCARM 3506, 24 h.
Assay [7] has as its system Staphylococcus aureus. Put plainly: Antibacterial activity against Staphylococcus aureus KCTC 503 after 24 hrs by two-fold serial dilution method. The following applies: KCTC 503, 24 h.
Assay [8] relates to Staphylococcus aureus. Put plainly: Ratio of MIC for norfloxacin to compound for methicillin-resistant Staphylococcus aureus CCARM 3506 after 24 hrs by two-fold serial dilution method.
For assay [9], the system named is Staphylococcus aureus. Put plainly: Antibacterial activity against Staphylococcus aureus KCTC 4220 after 24 hrs by two-fold serial dilution method. The following applies: KCTC 4220, 24 h.
For assay [10], the system named is Staphylococcus aureus. Nature of the assay: Ratio of MIC for norfloxacin to compound for methicillin-resistant Staphylococcus aureus CCARM 3167 after 24 hrs by two-fold serial dilution method.
For assay [11], the system named is Staphylococcus aureus. Nature of the assay: Ratio of MIC for oxacillin to compound for methicillin-resistant Staphylococcus aureus CCARM 3506 after 24 hrs by two-fold serial dilution method.
The test system of assay [12] is Staphylococcus aureus. Put plainly: Antibacterial activity against methicillin-resistant Staphylococcus aureus CCARM 3167 after 24 hrs by two-fold serial dilution method. The following applies: CCARM 3167, 24 h.
Another assay has as its system Escherichia coli. Put plainly: Antibacterial activity against Escherichia coli 1356 after 24 hrs by two-fold serial dilution method. The following applies: Escherichia coli, 1356, 24 h.
In assay [13] the test system is Staphylococcus aureus. Put plainly: Ratio of MIC for norfloxacin to compound for quinolone-resistant Staphylococcus aureus CCARM 3519 after 24 hrs by two-fold serial dilution method.
For assay [14], the system named is Staphylococcus aureus. Nature of the assay: Ratio of MIC for norfloxacin to compound for Staphylococcus aureus KCTC 503 after 24 hrs by two-fold serial dilution method.
For assay [15], the system named is Staphylococcus aureus. Nature of the assay: Ratio of MIC for norfloxacin to compound for Staphylococcus aureus KCTC 209 after 24 hrs by two-fold serial dilution method.
Assay [16] has as its system Staphylococcus aureus. Nature of the assay: Ratio of MIC for norfloxacin to compound for Staphylococcus aureus KCTC 4220 after 24 hrs by two-fold serial dilution method.

In the case of `O=C(COc1ccc(/C=C2\SC(=S)N([C@@H](Cc3c[nH]c4ccccc34)C(=O)O)C2=O)cc1)c1cccc(Cl)c1`, the Ratio was found to be 64 in the assay with Staphylococcus aureus [1]; 64 with Staphylococcus aureus [2]; 4 in the assay with Staphylococcus aureus [8]; 4 in the assay on Staphylococcus aureus [10]; 64 in the assay on Staphylococcus aureus [11]; 64 in the assay with Staphylococcus aureus [13]. The MIC against Staphylococcus aureus [3] was 1 µg/mL (≈ 1.73 µM); with Staphylococcus aureus [4], 4 µg/mL (≈ 6.93 µM); against Staphylococcus aureus [5] it was 1 µg/mL (≈ 1.73 µM); with Staphylococcus aureus [6] it was 1 µg/mL (≈ 1.73 µM); against Staphylococcus aureus [7], 4 µg/mL (≈ 6.93 µM); in the assay on Staphylococcus aureus [9], 8 µg/mL (≈ 13.9 µM). Further, the minimal inhibitory concentration (MIC) in the assay with Staphylococcus aureus [12] was 1 µg/mL (≈ 1.73 µM); against Escherichia coli it was over 64 µg/mL.
Consider `O=C(COc1ccc(/C=C2\SC(=S)N([C@@H](Cc3ccccc3)C(=O)O)C2=O)cc1)c1ccc(F)cc1`, for which the Ratio in the assay on Staphylococcus aureus [1] is given as 64; in the assay on Staphylococcus aureus [2] it was 64; with Staphylococcus aureus [8], 4; in the assay with Staphylococcus aureus [10] it was 4; in the assay on Staphylococcus aureus [11] it was 64; with Staphylococcus aureus [13], 64. Moreover, the MIC against Staphylococcus aureus [3] stood at 1 µg/mL (≈ 1.92 µM); against Staphylococcus aureus [4], 4 µg/mL (≈ 7.67 µM); in the assay on Staphylococcus aureus [5], 1 µg/mL (≈ 1.92 µM); with Staphylococcus aureus [6], 1 µg/mL (≈ 1.92 µM); in the assay on Staphylococcus aureus [7], 4 µg/mL (≈ 7.67 µM); in the assay with Staphylococcus aureus [9] it was 4 µg/mL (≈ 7.67 µM). Moreover, the MIC with Staphylococcus aureus [12] was 1 µg/mL (≈ 1.92 µM); in the assay with Escherichia coli it was over 64 µg/mL.
For the compound `O=C(COc1ccc(/C=C2\SC(=S)N([C@@H](Cc3c[nH]c4ccccc34)C(=O)O)C2=O)cc1)c1ccc(Cl)cc1`, the Ratio is on record as 64 in the assay with Staphylococcus aureus [1]; 64 with Staphylococcus aureus [2]; 2 with Staphylococcus aureus [14]; 2 in the assay on Staphylococcus aureus [15]; 2 in the assay on Staphylococcus aureus [16]; 4 with Staphylococcus aureus [8]. Also, the Ratio in the assay with Staphylococcus aureus [10] came out at 4; with Staphylococcus aureus [11], 64; in the assay on Staphylococcus aureus [13] it was 64. Also, the MIC in the assay with Staphylococcus aureus [3], against Staphylococcus aureus [4], with Staphylococcus aureus [5], with Staphylococcus aureus [6], in the assay with Staphylococcus aureus [7] and against Staphylococcus aureus [9] was 1 µg/mL (≈ 1.73 µM) each time. For the same compound, the figures for the MIC with Staphylococcus aureus [12] and with Escherichia coli were 1 µg/mL (≈ 1.73 µM) and over 64 µg/mL, respectively.

The term MIC denotes the least concentration at which growth counts as inhibited. Low readings indicate inhibition by little substance, high ones a need for much substance.
